One assay concerns low-density lipoproteins. Particulars: cited from earlier work.
Assay [1] concerns common iliac artery of high cholesteric rabbits. Description: Restenosis/thrombus model: balloon injury of common iliac artery in high cholesteric rabbits, local administration, angioscopy. The class given is in vivo, rabbit. To be noted: after one month; trans-resveratrol + heparin (1:100) compared with heparin only, P<0.05. How it is done: The procedure of U.S. Pat. No. 5,595,974 to Tomaru may be used to evaluate the utility of trans-resveratrol in preventing restenosis in high cholestereric rabbits, as follows:
An injectable trans-resveratrol solution is prepared containing the following components: 10 mg trans-resveratrol; 3 mg chlorobutanol (preservative); 0.1 mg gelatin hydrolyzate (stabilizer); 9 mg sodium chloride (isotonic agent); and distilled water containing 2% dimethyl sulfoxide ("DMSO") for injection (to 1 mL).
Common iliac arteries of high cholesteric rabbits to which a diet containing 2% of cholesterol is loaded for a month are used as a model for restenosis, wherein the model consists of (1) a heparin group with seven male rabbits and (2) trans-resveratrol solution combined with th seven male rabbits, weighing between 2.5 kg and 3 kg, respectively. […]
Post-operatively, the percent luminal obstruction (%) of both the control side and the drug administered side are compared by continuing the load of high cholesterol for one month. That is, effects for preventing stenosis by local administration of trans-resveratrol is evaluated by angioscopic visualization after one month from vascular injury to compare the percent luminal obstruction (%) caused by intima pachymenia.
The percent luminal obstruction (%) is calculated by the following equation: […]

`Oc1cc(O)c2c(c1)OC(c1ccc(O)c(O)c1)C(O)C2` (stereo not drawn) [catechin, reference compound]: in the assay with low-density lipoproteins, the “protection of low-density lipoproteins against oxidation” value (“protection of low-density lipoproteins” for short) is on record as “protect low-density lipoproteins against oxidation”.

Turning to `OC[C@H]1O[C@@H](Oc2cc(O)cc(/C=C\c3ccc(O)cc3)c2)[C@H](O)[C@@H](O)[C@@H]1O` [cis-resveratrol glucoside], the “protection of low-density lipoproteins” value in the assay on low-density lipoproteins was “protect low-density lipoproteins against oxidation”.

Take `Oc1ccc(/C=C\c2cc(O)cc(O)c2)cc1` [cis-resveratrol]: the “protection of low-density lipoproteins” value with low-density lipoproteins is recorded as “protect low-density lipoproteins against oxidation”.

`Oc1cc(O)c2c(c1)O[C@H](c1ccc(O)c(O)c1)[C@H](O)C2` [epicatechin, reference compound]: the “protection of low-density lipoproteins” value with low-density lipoproteins is reported as “protect low-density lipoproteins against oxidation”.

As to `O=c1c(O)c(-c2ccc(O)c(O)c2)oc2cc(O)cc(O)c12` [quercetin, reference compound], the “protection of low-density lipoproteins” value in the assay with low-density lipoproteins is reported as “protect low-density lipoproteins against oxidation”.

For the molecule `C[C@@H]1O[C@@H](OC[C@H]2O[C@@H](Oc3c(-c4ccc(O)c(O)c4)oc4cc(O)cc(O)c4c3=O)[C@H](O)[C@@H](O)[C@@H]2O)[C@H](O)[C@H](O)[C@H]1O` [rutin, reference compound], in the assay on low-density lipoproteins, the “protection of low-density lipoproteins” value is listed as “protect low-density lipoproteins against oxidation”.

`OC[C@H]1O[C@@H](Oc2cc(O)cc(/C=C/c3ccc(O)cc3)c2)[C@H](O)[C@@H](O)[C@@H]1O` [trans-resveratrol glucoside]: in the assay with low-density lipoproteins, the “protection of low-density lipoproteins” value is “protect low-density lipoproteins against oxidation”.

Regarding `Oc1ccc(/C=C/c2cc(O)cc(O)c2)cc1` [trans-resveratrol], the “protection of low-density lipoproteins” value with low-density lipoproteins is “protect low-density lipoproteins against oxidation”. In assay [1], the “percent luminal obstruction (%)” value is “remarkably reduced percent luminal obstruction (%)”.

(Values after patent US6022901A, “Administration of resveratrol to prevent or treat restenosis following coronary intervention” (priority 1998, dated 2000).)
